Reference: US20060192819A1, “Recording apparatus” (Fuji Xerox Co., Ltd., priority 2005, published 2006)

Assay: Solubility of ionic liquid in 100 g of ink or treating solution
Format: physicochemical
Details: about 23° C., left 1 day
Method: Solubility (the amount of the ionic liquid that can be solved in 100 g of the ink) is defined by mixing the ink and the ionic liquid in predetermined amounts and leaving the resultant mixture for 1 day while keeping it at a temperature of about 23° C. The amount of ionic liquid that has separated from the ink 1 day after mixing is determined as the amount of ionic liquid exceeding the solubility of the ionic liquid in the ink.

SMILES | Solubility (g) of ionic liquid in 100 g of ink (ink A) | Solubility (g) ionic liquid in 100 g of treating solution (treating solution A) | Solubility (g) of ionic liquid in 100 g of ink (ink B)
CC[N+](C)(CC)CCOC.O=S(=O)([N-]S(=O)(=O)C(F)(F)F)C(F)(F)F [Example 1-2, N-diethyl-3-methyl-N-(2-methoxyethyl)ammonium bis(trifluoromethanesulfonyl)imide] | 0.1 g or less | 0.1 g or less | 
CC[N+](C)(CC)CCOC.F[B-](F)(F)F [Example 1-4, N-diethyl-3-methyl-N-(2-methoxyethyl)tetrafluoroborate] |  |  | less than 5 g
